# Assay results as given in publication PMC12455572, “Amphipathic Proline-Rich Cell Penetrating Peptides for Targeting Mitochondria” (ACS Chemical Biology, 2025).
# “Also recorded” adds a separate entry of the source. Where a SMILES comes first, the peptide text is derived from it. [ ]: non-standard residue; d: D form. The star is where a group is joined. 5FAM = O=C1OC2(c3ccc(O)cc3Oc3cc(O)ccc32)c2ccc(C(=O)*)cc21; Pro(cis-4-guanidino) = NC(N)=N[C@@H]1CN[C@H](C(=O)O)C1; Cha = N[C@@H](CC1CCCCC1)C(=O)O; Ahx = NCCCCCC(=O)O
# Experiments:
# [1] = Stability of the peptides in cell lysate; type: in vitro ADME; settings: 200 µM peptide, 37 °C, RP-HPLC at 488 nm; for Stability in MCF-7 cell lysate: MCF-7 cell lysate 1 mg/mL protein in PBS, time points 0 min, 1 h and 24 h
# Experimental: MCF-7 cells were grown to confluency in a T-175 flask. Cells were washed with PBS (12 mL, 4 °C) and subsequently scraped off into PBS (7 mL, 4 °C) and collected in a Falcon tube. The suspension was then sonicated for 3 sec at an amplitude of 30% followed by a 30 sec rest period, and the procedure was repeated three time. The insoluble fraction was removed by centrifugation for 10 min at 12.000 rcf, at 4 °C and the supernatant was transferred to a new tube. […]
# Stability of the peptides in cell lysate
# The peptides were added (final concentration of 200 µM) to the MCF-7 cell lysate, with a protein concentration adjusted to 1 mg/mL with PBS. Immediately after addition of the peptide to the cell lysate, a sample (80 µL) was taken as the t = 0 min time point. The sample was diluted in MeCN (1:1), kept on ice for 5 min and centrifuged (12.000 rcf, 10 min, 4 °C). The supernatant was filtered and analyzed by analytical RP-HPLC (at 488 nm) using the standard conditions (gradient 70 % to 45 % of B over 20 min at 25 °C).
# The stability of the peptides was monitored at time points 0 min, 1 h and 24 h.
# MCF-7 cells = assay: Flow cytometry (FACS): overall cellular uptake; type: cell-based; settings: for Fold higher cellular uptake with additional C-terminal hydrophobic residue (FACS): 1 h, 37 °C, versus the peptide without the C-terminal Cha/ChPro; for Total cellular fluorescence after the 24 h rest compared with directly after 1 h incubation (FACS): MCF-7, 1 h incubation at 37 °C, then 24 h rest in DMEM + 10% FBS
# Experimental: MCF-7 cells were seeded in a 24-well plate at 150′000 cells/well in DMEM (1 mL, 10% FCS), and allowed to adhere overnight. The medium was removed, the cells were washed with PBS (250 μL, 1x) and incubated with the peptide solution at 20 μM, 10 μM, 5 μM or 2.5 μM in medium (200 μL, 1% FCS) for 1 h at 37 °C. The medium was removed, and the cells were washed with PBS (250 μL, 2x). Trypsin (100 μL, 0.05%) was added, and the cells were incubated at 37 °C for 5 min. D-PBS with Mg^2+ and Ca^2+ (300 μL, 4 °C) was added, the cells were resuspended and centrifuged for 5 min at 0.4 rcf. The supernatant was carefully removed, and the cells were resuspended in a solution of PBS containing 1.5 μM PI and 2 mM EDTA (400 μL at 4 °C). The cells were added to FACS tubes and kept on ice prior to analysis. Each sample contained 10′000 cells and was analyzed in triplicate. Each experiment was repeated three times.
# For the experiments that included the 24 h rest period, the peptides were incubated as described above. After the 1 h incubation time, the cells were washed with PBS (250 μL, 2x), DMEM (250 μL, 10% FBS) was added, and the cells were kept at 37 °C, 5% CO2 for 24 h. For a direct comparison of the effect of a 24 h rest period, another set of peptides was incubated with the cells for 1 h. Then, cells of both sets of experiments (1 h followed by the 24 h rest period versus 1 h incubation) were washed with PBS, treated with trypsin, and prepared for FACS analysis as described above. Each sample was run in triplicate and was repeated three times. […]
# MCF-7 cells were obtained from the American Type Culture Collection (ATCC).
# The cells were grown in a humidified 5% CO2 atmosphere at 37 °C Dulbecco’s Modified Eagle’s Medium (DMEM), high glucose, GlutaMAXTM (4 mM) supplemented with L-glutamine (4 mM), gentamicin (10 mg/L), […]
# Fluorescence-Activated Cell Sorting (FACS) analyzer
# On a BD LSRFortessa flow cytometer, CF was excited at 488 nm and monitored with 530/30 bandpass, PI was excited at 561 nm and monitored with a 610/20 bandpass. Mean fluorescence values were determined from the histograms using FlowJo 10.0.6 software while dead cells were removed according to PI staining.
# Below is an example, CF-Ahx-(ChaZZ)3, of gating, set on untreated cells and propagated to all samples.
# Each sample was run in triplicate, and each experiment was repeated at least three times.
# (1 picture or pasted object on this page, not shown here)
# [2] = RP-HPLC retention time as estimate of hydrophobicity (C4 column, 30 to 55% B); type: physicochemical; settings: RP-HPLC used as estimate of hydrophobicity, A H2O/MeCN/TFA (1000/10/1), gradient 30 to 55% B, 20 min, CF-Ahx-labelled peptides
# Experimental: 2 (A) General structure of amphipathic peptides, CF-Ahx-[XZZ]3-NH2; CF = 5(6)-Carboxyfluorescein, Ahx = aminohexanoic acid. (B) CD spectra of the peptides, recorded at 50 μM in H2O, pH 5.7. For a comparison with a spectrum of a Gup oligomer, see Figure S2. (C) Retention time of the peptides measured by RP-HPLC on a C4 column with a mobile phase from 30 to 55% of MeCN in H2O/MeCN/TFA (1000/10/1). (D) Representative confocal microscopic images of live MCF-7 cells, incubated for 1 h at 37 °C with peptide solutions at a concentration of 10 μM in DMEM + 1% FBS (left, in green). Mitochondria were stained with Deep Red MitoTracker (middle, in red) and merged images (right, orange/yellow indicating colocalization) with Hoechst33342 stain (blue) for the nucleus. TEXT PRINTED IN THE PICTURE: (C) (ValZZ)3: tr(min): 1.8 | (C) (PheZZ)3: tr(min): 2.9 | (C) (TrpZZ)3: tr(min): 3.2 | (C) (ChaZZ)3: tr(min): 5.4 DOUBTS OF THE COPYIST ABOUT THIS PICTURE: Panel C, column head: the small lowered letter after t is read as r (tr), not certain
# The Gup residues should preorganize the peptides into a PPII helix with one hydrophobic and two cationic edges along the PPII helical peptide. Indeed, circular dichroism (CD) spectra of the peptides display the characteristic minimum and maximum at ∼206 nm and ∼224 nm, respectively, of a PPII helix (Figure B). The spectra imply that the non-proline residues in every third position are tolerated within the helical structure. We used reverse phase high performance liquid chromatography (RP-HPLC) for an estimate of the hydrophobicity of the peptides. On a C4 column using two mobile phases A (H2O/MeCN/TFA (1000/10/1)) and B (MeCN) with a gradient of 30% to 55% B, all peptides eluted over 20 min but with different retention times (Figure C). The Cha-containing peptide had the longest retention time, indicating the highest hydrophobicity within the series, followed by the Trp-, Phe-, and Val-peptides.
Molecule,Stability in MCF-7 cell lysate [1],"Fold higher cellular uptake with additional C-terminal hydrophobic residue (FACS) (MCF-7 cells; MCF-7, 5 μM) [fold]","Fold higher cellular uptake with additional C-terminal hydrophobic residue (FACS) (MCF-7 cells; MCF-7, 10 μM) [fold]","Fold higher cellular uptake with additional C-terminal hydrophobic residue (FACS) (MCF-7 cells; MCF-7, 20 μM) [fold]",Total cellular fluorescence after the 24 h rest compared with directly after 1 h incubation (FACS) (MCF-7 cells),Retention time tr [2] [min],"metabolised at 24 h ([1]; human, cells or culture medium, lysate 1 mg/mL protein in PBS, after 24 h incubation, read-out: Fraction degraded in MCF-7 cell lysate) [%]"
CF-Ahx-(ChaZZ)2-Cha-NH2,degraded in the MCF-7 cell lysate over time,2,4,6,lower; also recorded: Significantly less fluorescence was observed after 24 h,8.1,–
CF-Ahx-(ChaZZ)3-NH2,stable,–,–,–,lower; also recorded: less fluorescence was observed after 24 h,–,–
"N=C(N)N[C@H]1C[C@@H](C(=O)N2C[C@@H](NC(=N)N)C[C@H]2C(=O)N[C@@H](CC2CCCCC2)C(=O)N2C[C@@H](NC(=N)N)C[C@H]2C(=O)N2C[C@@H](NC(=N)N)C[C@H]2C(=O)N[C@@H](CC2CCCCC2)C(=O)N2C[C@@H](NC(=N)N)C[C@H]2C(=O)N2C[C@@H](NC(=N)N)C[C@H]2C(=O)N[C@@H](CC2CCCCC2)C(N)=O)N(C(=O)[C@H](CC2CCCCC2)NC(=O)CCCCCNC(=O)c2ccc3c(c2)C(=O)OC32c3ccc(O)cc3Oc3cc(O)ccc32)C1 [(ChaZZ)3-Cha, CF-Ahx-(ChaZZ)3-Cha-NH2] ({5FAM-Ahx}-[Cha][Pro(cis-4-guanidino)][Pro(cis-4-guanidino)][Cha][Pro(cis-4-guanidino)][Pro(cis-4-guanidino)][Cha][Pro(cis-4-guanidino)][Pro(cis-4-guanidino)][Cha]-NH2)",–,3,3,1.5,constant or increased,8.5,~6
